In patent publication US20120294826A1, “METHODS, KITS AND COMPOSITIONS FOR AMELIORATING ADVERSE EFFECTS ASSOCIATED WITH TRANSFUSION OF AGED RED BLOOD CELLS” (priority 2009, published 2012):

Experiments:
E. coli = assay: In vitro bacterial growth in plasma from transfused mice; assay type: cell-based
Method: Results shown in FIG. 15A are representative of two experiments. C57BL/6 mice were infused with a sub-clinical dose of LPS (E. coli 0111:B4; 30 μg per mouse by tail vein injection) followed by transfusion of 400 μL of fresh RBCs or stored RBCs. Mice were sacrificed at 24-hour post-transfusion and plasma cytokines measured (n=5 per group). *P=0.008, **P=0.003 as compared to mice infused LPS+ stored RBCs. To obtain the results shown in FIG. 15B, plasma (100 μL) was obtained from mice 2-hours post-transfusion with 400 μL of fresh RBCs (n=15), stored RBCs (n=24), stored RBC-derived supernatant (n=12), washed stored RBCs (n=13), or ghosts prepared from stored RBCs (n=8). Plasma was also obtained from control untransfused mice (n=14) or 24-hours post-transfusion with stored RBCs (n=8). Samples were incubated at 37° C. with shaking with about 1×10^6 CFU of E. coli, as labeled. Bacterial growth was monitored every 30 minutes by absorbance at 600 nm for up to 5 hours. […] To obtain the results shown in FIG. 15C, pooled plasma samples (100 μL) from mice 2 hours after transfusion with 400 μL of fresh RBCs or stored RBCs were supplemented with either ferric citrate (20 μM), sodium citrate (20 μM), bovine serum albumin (BSA; 80 μM), or protoporphyrin IX (20 μM), and then incubated at 37° C. with shaking with ˜1×10^6 CFU of E. coli. Bacterial growth was monitored every 30 minutes by absorbance at 600 nm for up to 5 hours in replicates of 5 per group. […] To obtain the results shown in FIG. 15D, pooled plasma (n=4) were incubated with the iron chelator, DFO (20 μM), or with the iron-chelated form of DFO, ferroxamine (FO) (20 μM) and inoculated with E. coli as shown for the previous experiment. […] To obtain the results shown in FIG. 15E, pooled plasma (n=5) was incubated with the iron chelator, 2,2′-dipyridyl (400 μM), with or without ferric citrate (133 μM) and inoculated with E. coli, as shown for the previous experiment. […] Results are representative of at least 2 experiments and are shown as mean (±SEM). Note that the absence of an error bar is indicative of highly reproducible replicates with pooled plasma.
A pathogenic strain of E. coli, obtained from an anonymous patient with a urinary tract infection, was used. For each experiment, a sample from a frozen stock of this E. coli was inoculated into Nutrient Broth (Difco, BD Biosciences) and grown to mid-log phase (about 3 hours). Bacteria were then washed twice in PBS and re-suspended to about 200,000 colony forming units (CFU)/μL. Five microliters of bacterial suspension were then added to 100 μL of heparinized plasma in a 96-well EIA/RIA plate (Costar, Sigma). Bacterial growth was measured by absorbance at 600 nm. In some experiments, 20 μM of ferric citrate or sodium citrate (Sigma), bovine serum albumin, 2,2′-dipyridyl (all from Sigma-Aldrich), protoporphyrin IX (Frontier Scientific, Logan, Utah), or DFO were added to plasma before bacterial inoculation.
Significance between two means was calculated using a two-tailed Mann-Whitney U test. Significance relevant to bacterial growth in vitro was determined by converting each growth curve to an area under the curve (AUC) value followed by a 2-tailed Mann-Whitney U test to compare mean AUC for each group. A value for P less than 0.05 was considered significant. Statistical analysis was performed using Prism 5 (GraphPad Software, Inc., La Jolla, Calif.).

[1] = in vivo; cited from earlier work
[2] = test system: pro-inflammatory response induced by stored RBC transfusions; assay: DFO or FO infusion immediately before stored RBC transfusion, plasma cytokine/chemokine levels (FIG. 16A, 19); assay type: in vivo, mice; conditions: 2 hours
Method: To obtain the results shown in FIG. 16A, mice were pretreated with a PBS vehicle control (n=28) or with 3 mg of DFO, with (n=15) or without (n=31) the addition of equimolar ferric citrate, immediately before transfusion with stored RBCs (400 μL). Mice were sacrificed 2 hours after transfusion, and plasma cytokine levels were measured; *P<0.05; **P<0.01; ***P<0.001 compared with mice infused with PBS vehicle and transfused stored RBCs. To obtain the results shown in FIG. 16B, bioluminescence was quantified for 24 hours after transfusion over the hepatosplenic region of SAA1-luciferase reporter mice transfused with 200 μL of fresh RBCs (n=3; •), the PBS vehicle control and stored RBCs (n=3; ▪), or 3 mg of DFO and stored RBCs (n=6; ▴); P=0.095 at 4 and 6 hours after transfusion comparing vehicle-treated and DFO-treated mice. […]
Mice were untreated or pretreated with 3 mg of DFO immediately before stored RBC transfusion (400 μL; n=14 per group). Mice were sacrificed 2-hours post-transfusion and plasma cytokine/chemokine levels measured. […]
RBCs (200 or 400 μL at 17.0-17.5 g/dL of hemoglobin; 1 or 2 equivalent human units, respectively) were transfused through the retro-orbital plexus of isoflurane-anesthetized mice. […] Survival was calculated by comparing the ratio of Dil- to DiO-labeled RBCs in the sample to the ratio in the transfuse itself. […]

TNF-α = conditions: LPS-challenged mice; reference [119]; cited from earlier work
[3] = added to pooled plasma from mice transfused with fresh RBCs, 20 μM (bovine serum albumin 80 μM)

## bovine serum albumin: bovine serum albumin control supplement
E. coli; [3]
  bacterial growth: not

## CC(=O)N(O)CCCCCNC(=O)CCC(=O)N(O)CCCCCNC(=O)CCC(=O)N(O)CCCCCN [DFO, deferoxamine]
[1]
  t1/2: 6 h
[2]; 3 mg (about 120 mg/kg) DFO i.v. immediately before stored RBCs, mean±s.e.m., without DFO 212.8±30.8, P=0.005
  plasma IL-6 levels: 98.4 ± 10.1 pg/mL

## O=C([O-])CC(O)(CC(=O)[O-])C(=O)[O-].[Na+].[Na+].[Na+] [sodium citrate]
E. coli; [3]
  bacterial growth: not

## CC(=O)N([O-])CCCCCNC(=O)CCC(=O)N([O-])CCCCCNC(=O)CCC(=O)N([O-])CCCCCN.[Fe+3] [FO, ferroxamine]
E. coli; 20 μM added to pooled plasma from mice transfused with stored RBCs, absorbance at 600 nm up to 5 hours
  bacterial growth: prevented the inhibition of bacterial growth
TNF-α
  TNF-α levels: reduced TNF-α levels to a similar extent
[2]; 3 mg DFO, or FO (equimolar DFO and ferric citrate), before stored RBCs (400 μL)
  proinflammatory cytokine response: as effective as DFO

## c1ccc(-c2ccccn2)nc1 [2,2′-dipyridyl]
E. coli; 2,2′-dipyridyl 400 μM in pooled plasma from mice transfused with stored RBCs
  bacterial growth: greater inhibition of bacterial growth
E. coli; 2,2′-dipyridyl preincubated with a one-third molar ratio of ferric citrate (133 μM)
  inhibitory effect on bacterial growth: abrogated

## ferric citrate [iron citrate]
E. coli; [3]
  bacterial growth: promoted to a similar level as in plasma from mice transfused with stored RBCs

## O=C(O)c1ccc(-n2nc(-c3ccccc3O)nc2-c2ccccc2O)cc1 [deferasirox]
[1]
  t1/2: 8 to 16 h
